# Experiments:
# Type in all cases: cell-based
# Conditions in all cases: 100 ng/me of peptide; EBV-infected B cells stimulated with anti-CD150; ELISA of culture supernatant
# IL-1A = experiment: Reduction of IL-1A secretion in activated B cells (ELISA)
# Description: (§1) In order to determine the activity of the novel peptides synthesized in Example 1 for reducing the secretion of inflammatory cytokines, the activated pathogenic B cells were treated with each of the 18 types of synthesized novel peptides and the reduction in secretion of inflammatory cytokines from the B cells was monitored.
# (§2) Specifically, in order to determine whether the novel peptides could weaken the pathogenic B cells which are involved in the development of disease symptoms, the in vitro B cells model which is similar to the joint infiltrative B cells of rheumatoid arthritis was used. The activated pathogenic B cell was generated by stimulating Ebstein Barr virus (EBV)-infected B cells with anti-CD150 antibodies, and the cells were treated with […] of each of the 18 types of novel peptide.
# (§3) In order to confirm the effect of 18 types of novel peptides in reducing inflammatory cytokines, the secretion amount of various cytokines (IL-1A, IL-1B, IL-2, IL-4, IL-5, IL-6, IL-8, IL-10, IL-12A, IL-13, IL-17A, GM-CSF, IL-34) secreted from the activated B cells was measured. The supernatants of B cell culture were analyzed enzyme-linked immunosorbent assay (ELISA), and the difference in absorbance (450 nm-570 nm) of the color developing reagent was measured as test results. Based on the measured difference in absorbance (450 nm-570 nm) of the color developing reagent, the absorbance of cytokines secreted when treated with the 18 types of novel […] was calculated in percentage, while setting the absorbance corresponding to the cytokines secreted from the activated B cells stimulated by anti-CD150 as 100%.
# IL-1B = experiment: Reduction of IL-1B secretion in activated B cells (ELISA)
# Description: as §1, §2, §3
# IL-2 = experiment: Reduction of IL-2 secretion in activated B cells (ELISA)
# Description: as §1, §2, §3
# IL-4 = experiment: Reduction of IL-4 secretion in activated B cells (ELISA)
# Description: as §1, §2, §3
# IL-5 = experiment: Reduction of IL-5 secretion in activated B cells (ELISA)
# Description: as §1, §2, §3
# IL-6 = experiment: Reduction of IL-6 secretion in activated B cells (ELISA)
# Description: as §1, §2, §3
# IL-8 = experiment: Reduction of IL-8 secretion in activated B cells (ELISA)
# Description: as §1, §2, §3
# IL-10 = experiment: Reduction of IL-10 secretion in activated B cells (ELISA)
# Description: as §1, §2, §3
# IL-12A = experiment: Reduction of IL-12A secretion in activated B cells (ELISA)
# Description: as §1, §2, §3
# IL-13 = experiment: Reduction of IL-13 secretion in activated B cells (ELISA)
# Description: as §1, §2, §3
# IL-17A = experiment: Reduction of IL-17A secretion in activated B cells (ELISA)
# Description: as §1, §2, §3
# IL-34 = experiment: Reduction of IL-34 secretion in activated B cells (ELISA)
# Description: as §1, §2, §3
# GM-CSF = experiment: Reduction of GM-CSF secretion in activated B cells (ELISA)
# Description: as §1, §2, §3
Substance,Inhibition rate of each cytokine compared to CD150-stimulated EBV-t B cells (%) IL-1A (IL-1A) [%],Inhibition rate of each cytokine compared to CD150-stimulated EBV-t B cells (%) IL-1B (IL-1B) [%],Inhibition rate of each cytokine compared to CD150-stimulated EBV-t B cells (%) IL-2 (IL-2) [%],Inhibition rate of each cytokine compared to CD150-stimulated EBV-t B cells (%) IL-4 (IL-4) [%],Inhibition rate of each cytokine compared to CD150-stimulated EBV-t B cells (%) IL-5 (IL-5) [%],Inhibition rate of each cytokine compared to CD150-stimulated EBV-t B cells (%) IL-6 (IL-6) [%],Inhibition rate of each cytokine compared to CD150-stimulated EBV-t B cells (%) IL-8 (IL-8) [%],Inhibition rate of each cytokine compared to CD150-stimulated EBV-t B cells (%) IL-10 (IL-10) [%],Inhibition rate of each cytokine compared to CD150-stimulated EBV-t B cells (%) IL-12A (IL-12A) [%],Inhibition rate of each cytokine compared to CD150-stimulated EBV-t B cells (%) IL-13 (IL-13) [%],Inhibition rate of each cytokine compared to CD150-stimulated EBV-t B cells (%) IL-17A (IL-17A) [%],Inhibition rate of each cytokine compared to CD150-stimulated EBV-t B cells (%) IL-34 (IL-34) [%],Inhibition rate of each cytokine compared to CD150-stimulated EBV-t B cells (%) GM-CSF (GM-CSF) [%]
RDGRTDG (SIS-1#2 peptide),23.8,18.2,15.1,23.8,25.4,29.8,25.2,19.8,30.1,23.8,39.8,25.4,19.0
RDGRTDGRTD (SIS-1#8 peptide),30.2,25.9,33.0,18.9,12.0,23.8,29.2,10.0,19.2,33.5,30.1,19.8,19.8
RTDCTR (SIS-1#3 peptide),14.0,20.0,12.3,13.2,17.4,18.2,19.2,25.2,19.4,10.2,11.0,9.8,7.2
RTDG (SIS-1#7 peptide),6.3,5.3,7.4,10.2,3.5,11.8,3.2,5.3,11.4,3.6,9.5,2.9,4.5
TDG (SIS-1#11 peptide),6.0,2.7,3.2,19.5,10.8,8.1,4.2,4.2,6.8,5.9,6.3,7.2,4.2

# Reference: patent US9403874B2, “Peptides and use thereof” (IL YANG PHARM. CO.,LTD., priority 2012, dated 2016)
